Laboratory results taken from patent publication US11415579B2, “Assay for measuring a rate of reaction between a target and a ligand candidate” (Imperial College Innovations Ltd., priority 2016, dated 2022).

Assays:
[1] = target: T1, Cdk2(S181C) (C177A) (Homo sapiens, UniProt P24941, C177A/S181C); assay: Kinetic thiol consumption assay with Cdk2 mutant S181C; type: binding; design: key to Rate enhancement, Cdk2 S181C: rate constant with Cdk2 ÷ rate constant with model thiol (fold); conditions: additional mutation C177A; for Rate constant with Cdk2 S181C: Protein: Cdk2, cysteine position S181C, in h^-1
T1 construct: poly-histidine; made in house; host or cells: E. coli
Summary of the method: (§1)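 His-tagged single-surface-cysteine Cdk2 mutants (C177A background) from E. coli, 5 μM in degassed phosphate buffer pH 8, pre-treated with immobilized TCEP beads. Fluorescence (ex/em 380/470 nm) read after 1 h at room temperature, normalized to DMSO/thiol-only control; first-order decay fits gave rate constants, divided by model-thiol rate for rate enhancement.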

[2] = target: T2, Cdk2(T182C) (C177A) (Homo sapiens, UniProt P24941, C177A/T182C); assay: Kinetic thiol consumption assay with Cdk2 mutant T182C; type: binding; design: key to Rate enhancement, Cdk2 T182C: rate constant with Cdk2 ÷ rate constant with model thiol (fold); conditions: additional mutation C177A; for Rate constant with Cdk2 T182C: Protein: Cdk2, cysteine position T182C, in h^-1
T2 construct: poly-histidine; made in house; host or cells: E. coli
Summary of the method: as §1

[3] = target: T3, Cdk2(C177A, F80C) (Homo sapiens, UniProt P24941, C177A/F80C); assay: Kinetic thiol consumption assay with Cdk2 mutant F80C, incl. kobs versus concentration (Kd, k2); type: binding; design: key to Rate enhancement, Cdk2 F80C: Cdk2 rate constant divided by model-thiol rate constant; conditions: additional mutation C177A; for Rate constant with Cdk2 F80C: Protein: Cdk2, cysteine position F80C, in h^-1
T3 construct: poly-histidine; made in house; host or cells: E. coli
Summary of the method: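 His-tagged Cdk2(C177A/F80C) from E. coli or model thiol, 5 μM in degassed phosphate buffer pH 8 with TCEP beads, reacted with acrylamide ligands; fluorescence (ex/em 380/470 nm) normalized to DMSO control and fitted to first-order decay for kobs. Kd and k2 obtained from hyperbolic fit of kobs versus ligand concentration.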

[4] = target: T4, human cyclin-dependent kinase 2 (Cdk2) (Homo sapiens, UniProt P24941); assay: Kinetic thiol consumption assay with wild type Cdk2 (C177); type: binding; design: key to Rate enhancement, Cdk2 WT: k(Cdk2) divided by k(model thiol); Rate constant with Cdk2 (k(Cdk2)): unit not given here; conditions: for Rate constant with Cdk2 (k(Cdk2)): 500 μM ligand, 5 μM thiol, phosphate buffer pH 8; for Rate enhancement, Cdk2 WT: no additional mutations; for Rate constant with Cdk2 WT: Protein: Cdk2, cysteine position WT, in h^-1; for k(Cdk2)/k(Cdk2_mut) rate enhancement: model thiol Cdk2[C177A, F80C, K278C]; for k(Cdk2)/k(GSH) rate enhancement: model thiol glutathione
T4 construct: poly-histidine; made in house; host or cells: E. coli
Summary of the method: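 Thiol 5 μM (Cdk2 or model thiol), degassed phosphate buffer pH 8, TCEP beads 2% v/v. Plates incubated 1 h RT, ex/em 380/470 nm. First-order decay fit → rate constant; ratio Cdk2/model thiol = rate enhancement.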

[5] = Kinetic thiol consumption assay with model thiol glutathione; type: physicochemical; design: Rate constant with glutathione (k(GSH)): unit not given here; conditions: for Rate constant with glutathione (k(GSH)): 500 μM ligand, 5 μM thiol, phosphate buffer pH 8; for Rate constant with Glutathione: Protein: Glutathione, cysteine position NA, in h-1
Summary of the method: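 Rate constants for acrylamide reaction with 5 μM glutathione come from first-order exponential fits of normalized fluorescence decay (ex 380, em 470 nm). Reactions run in degassed phosphate buffer at pH 8 containing TCEP beads, room temperature.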

[6] = target: T5, Cdk2(S276C) (C177A) (Homo sapiens, UniProt P24941, C177A/S276C); assay: Kinetic thiol consumption assay with Cdk2 mutant S276C; type: binding; design: key to Rate enhancement, Cdk2 S276C: rate constant with Cdk2 ÷ rate constant with model thiol (fold); conditions: additional mutation C177A; for Rate constant with Cdk2 S276C: Protein: Cdk2, cysteine position S276C, in h^-1
T5 construct: poly-histidine; made in house; host or cells: E. coli
Summary of the method: as §1

[7] = target: T6, Cdk2(R122C) (C177A) (Homo sapiens, UniProt P24941, C177A/R122C); assay: Kinetic thiol consumption assay with Cdk2 mutant R122C; type: binding; design: key to Rate enhancement, Cdk2 R122C: rate constant with Cdk2 ÷ rate constant with model thiol (fold); conditions: additional mutation C177A; for Rate constant with Cdk2 R122C: Protein: Cdk2, cysteine position R122C, in h-1
T6 construct: poly-histidine; made in house; host or cells: E. coli
Summary of the method: as §1

[8] = target: T7, Cdk2(N272C) (C177A) (Homo sapiens, UniProt P24941, C177A/N272C); assay: Kinetic thiol consumption assay with Cdk2 mutant N272C; type: binding; design: key to Rate enhancement, Cdk2 N272: rate constant with Cdk2 ÷ rate constant with model thiol (fold); conditions: for Rate enhancement, Cdk2 N272: Cdk2 N272, additional mutation C177A; for Rate constant with Cdk2 N272C: Protein: Cdk2, cysteine position N272C, additional mutation C177A, in h^-1
T7 construct: poly-histidine; made in house; host or cells: E. coli
Summary of the method: as §1

[9] = target: T8, Cdk2(H71C) (C177A) (Homo sapiens, UniProt P24941, C177A/H71C); assay: Kinetic thiol consumption assay with Cdk2 mutant H71C; type: binding; design: key to Rate enhancement, Cdk2 H71C: rate constant with Cdk2 ÷ rate constant with model thiol (fold); conditions: additional mutation C177A; for Rate constant with Cdk2 H71C: Protein: Cdk2, cysteine position H71C, in h^-1
T8 construct: poly-histidine; made in house; host or cells: E. coli
Summary of the method: as §1

[10] = target: T9, Cdk2[C177A, F80C, K278C] (Homo sapiens, UniProt P24941, C177A/F80C/K278C); assay: Kinetic thiol consumption assay with mutant Cdk2 as model thiol; type: binding; design: unit not given here; conditions: 500 μM ligand, 5 μM thiol, phosphate buffer pH 8
T9 construct: poly-histidine; made in house; host or cells: E. coli
Summary of the method: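 Model thiol: His-tagged human Cdk2 C177A/F80C/K278C (two engineered surface cysteines), E. coli-expressed, 5 μM in degassed phosphate buffer pH 8 with immobilized TCEP beads (2% v/v). Fluorescence (ex/em 380/470 nm) followed over time at room temperature, normalized to DMSO/thiol control. First-order decay fit gives rate constants.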

Rate enhancement, Cdk2 S181C [1]	Rate constant with Cdk2 S181C [1]	Rate enhancement, Cdk2 T182C [2]	Rate constant with Cdk2 T182C [2]	Rate enhancement, Cdk2 F80C [3]	Rate constant with Cdk2 (k(Cdk2)) [4]	Rate enhancement, Cdk2 WT [4]	Rate constant with Cdk2 WT [4]	k(Cdk2)/k(Cdk2_mut) rate enhancement [4]	k(Cdk2)/k(GSH) rate enhancement [4]	Rate enhancement, Cdk2 S276C [6]	Rate constant with Cdk2 S276C [6]	Rate enhancement, Cdk2 R122C [7]	Rate constant with Cdk2 R122C [7]	Rate enhancement, Cdk2 N272 [8]	Rate constant with Cdk2 N272C [8]	Rate enhancement, Cdk2 H71C [9]	Rate constant with Cdk2[C177A, F80C, K278C] (k(Cdk2_mut)) [10]	SMILES	Rate constant with glutathione (k(GSH)) [5]	Rate constant with Glutathione [5]	also measured
0.214	0.002194	1.829	0.01875	0.4555	0.003	0.5934	0.006082	0.8773	0.3421	0.4274	0.004381	0.322	0.0033	0.6473	0.006635	0.248	0.00342	C=CC(=O)NC1C[C@@H](C(=C)C)CC=C1C (stereo partly drawn) [EL-1074]	0.00876	0.01025	Rate constant with Cdk2 F80C [3]: 0.004669; Rate constant with Cdk2 H71C [9]: 0.002542
0.6334	0.001289	1.425	0.0029	0	0.00187	0.2802	0.0005702	0.6155	1.327	1.14	0.002319	0.8889	0.001809	0.7499	0.001526	0	0.00304	C=CC(=O)N1CCC2(CC1)CC2C(=O)OC (stereo not drawn) [CA-039]	0.00141	0.002035	
0.4715	0.005333	1.744	0.01973	0	0.00332	0.5218	0.005901	0.9623	0.5101	0.5828	0.006591	0.3691	0.004175	0.592	0.006696	0.8254	0.00345	C=CC(=O)NCC1CN(C2CC2)CCO1 (stereo not drawn) [CA-038]	0.0065	0.01131	Rate constant with Cdk2 H71C [9]: 0.009335
4.792	0.02877	0		0.6003	0.00698	1.749	0.0105	1.682	2.491	0.4087	0.002454	0.3071	0.001844	61.33	0.3682	0.1972	0.00415	C=CC(=O)NCC1CCCN1S(=O)(=O)c1ccc(C)cc1 (stereo not drawn) [CA-118]	0.0028	0.006004	Rate constant with Cdk2 F80C [3]: 0.003604; Rate constant with Cdk2 H71C [9]: 0.001184
